Experimental data as given in US20240182453A1, “NOVEL SUBSTITUTED PYRAZINE-CARBOXAMIDE DERIVATIVES” (Boehringer Ingelheim International GmbH, priority 2022, published 2024).

molecular target: human metabotropic Glutamate 4 receptor (mGluR4) (Homo sapiens (Human), UniProt Q14833); assay: Assay A: in vitro testing of mGluR4 potency (glutamate-induced cAMP lowering, HTRF cAMP); type: cell-based; settings: HEK293 cells overexpressing human mGluR4; 10 uM L-glutamic acid, 1 uM forskolin; compounds of the present invention
Sequence (Q14833 33-912): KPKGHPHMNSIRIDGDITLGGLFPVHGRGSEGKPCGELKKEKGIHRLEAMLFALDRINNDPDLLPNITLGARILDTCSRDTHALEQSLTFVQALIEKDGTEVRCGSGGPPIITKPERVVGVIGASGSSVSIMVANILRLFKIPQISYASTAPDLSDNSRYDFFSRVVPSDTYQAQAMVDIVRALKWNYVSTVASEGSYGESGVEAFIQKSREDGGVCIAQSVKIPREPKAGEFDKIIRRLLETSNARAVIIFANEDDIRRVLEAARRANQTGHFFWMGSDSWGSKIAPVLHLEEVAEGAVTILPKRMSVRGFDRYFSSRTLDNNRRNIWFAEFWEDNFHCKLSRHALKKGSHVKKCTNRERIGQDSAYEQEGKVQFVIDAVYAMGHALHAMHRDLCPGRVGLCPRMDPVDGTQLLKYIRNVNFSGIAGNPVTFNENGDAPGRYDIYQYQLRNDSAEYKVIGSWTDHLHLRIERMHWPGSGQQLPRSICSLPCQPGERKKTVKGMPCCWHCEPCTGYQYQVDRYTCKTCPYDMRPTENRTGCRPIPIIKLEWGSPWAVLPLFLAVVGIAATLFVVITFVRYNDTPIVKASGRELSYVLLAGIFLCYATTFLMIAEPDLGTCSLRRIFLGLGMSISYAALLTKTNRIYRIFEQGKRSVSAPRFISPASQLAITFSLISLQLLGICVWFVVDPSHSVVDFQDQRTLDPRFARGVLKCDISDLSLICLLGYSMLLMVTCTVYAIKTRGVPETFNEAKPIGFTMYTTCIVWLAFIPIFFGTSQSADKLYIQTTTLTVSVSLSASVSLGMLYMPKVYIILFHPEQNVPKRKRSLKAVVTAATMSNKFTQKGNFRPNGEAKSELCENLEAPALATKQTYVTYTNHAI
Experimental: A. In Vitro Testing of mGluR4 Potency
The in vitro activity of the compounds according to the invention may be investigated as follows:
The HEK293 cell overexpressing the human metabotropic Glutamate 4 receptor are thawed at 37° C. and immediately diluted with cell culture medium. After centrifugation, the cell pellet is re-suspended in medium and then distributed from a stirred spinner flask into the wells of the assay plate. The plates are incubated for one hour at room temperature before they are incubated for 24 hours at 37° C./5% CO2. After washing the cells in the plate three times with 80 uL HBSS/HEPES buffer (10 uL buffer remained in the wells after washing), 5 uL per well of compounds diluted in HBSS/HEPES buffer containing 0.2% BSA (final concentration: 0.1%) and 1 mM IBMX (final concentration: 0.5 mM) are added to the wells of the assay plate. Thereafter 5 uL per well of L-Glutamic acid (final concentration: 10 uM), forskolin (final concentration: 1 uM) and 1 mM IBMX (final concentration: 0.5 mM) dissolved in HBSS/HEPES buffer containing 0.2% BSA (final concentration: 0.1%) are added to the assay plate (final DMSO concentration: 1%). Several wells of the assay plate are used either for the positive and the negative controls or for the cAMP standard curve. The assay plate is incubated for 30 minutes at room temperature. Then 5 ul per well of Anti-cAMP-Antibody-d2 solution and 5 ul per well of cAMP-Europium Cryptate dilution are added to all wells of the plate and the plate is incubated another 60 minutes light protected at room temperature. The emission at 615 nm and 665 nm (Excitation wavelength: 320 nm) are measured on the EnVision™ reader (Perkin Elmer). The ratio between the emission at 665 nm and 615 is calculated by the reader. The whole assay is performed in the dark or under green light.
The cAMP standard is prepared by diluting the cAMP stock solution with HBSS/Hepes buffer: 5 μl/well of the cAMP dilutions (in HBSS/Hepes buffer containing 1 mM IBMX and 0.2% BSA—final concentration: 0.5 mM IBMX and 0.1% BSA) are added to 10 ul/well HBSS/Hepes buffer plus 5 ul/well 4% DMSO in HBSS/Hepes containing 0.2% BSA (final DMSO concentration: 1%—like in the wells containing compounds) in the wells of the assay plate. The final cAMP concentrations in the assay plate are: 0, 0.17, 0.69, 2.78, 11.1, 44.5, 178, and 712 nM (two wells/cAMP concentration).
Each assay microtiter plate contained also wells with vehicle controls instead of compound as controls for L-Glutamic acid induced signal (negative control; 100% CTL; 10 uM L-Glutamic acid+1 uM forskolin+0.5 mM IBMX+1% DMSO) and wells with vehicle controls without L-Glutamic acid as controls for non-specific changes in signal (positive control; 0% CTL; 0 uM L-Glutamic acid+1 uM forskolin+0.5 mM IBMX+1% DMSO).
The analysis of the data is performed by the calculation the ratio between the emission at 665 nm and the emission at 615 nm (Em665/Em615 ratio). Thereafter the signals of the compounds are normalized using the positive and negative controls by the following formula:
PoC=100×((Signal Sample−Positive Control)/(Negative Control−Positive Control))

Compound | IC50
5-(difluoromethyl)-N-[(1S)-1-(1-ethyl-5-fluoro-1H-1,3-benzodiazol-2-yl)-2-methylpropyl]pyrazine-2-carboxamide [Example 59] | 0.004 µM
COCCn1c(C(NC(=O)c2cnc(C)cn2)C2CCCO2)nc2cc(C(F)(F)F)ccc21 (single isomer, unassigned) [Example 19-1, N-{[1-(2-methoxyethyl)-5-(trifluoromethyl)-1H-1,3-benzodiazol-2-yl](oxolan-2-yl)methyl}-5-methylpyrazine-2-carboxamide] | 0.013 µM
COCCn1c([C@@H](NC(=O)c2cnc(C)cn2)[C@H]2CCCO2)nc2cc(C(F)(F)F)ccc21 (single isomer, unassigned) [Example 19] | 0.003 µM
COCCn1c(C(NC(=O)c2cnc(C(F)F)cn2)C2CCOC2)nc2cc(F)ccc21 (single isomer, unassigned) [Example 48-2, 5-(difluoromethyl)-N-{[5-fluoro-1-(2-methoxyethyl)-1H-1,3-benzodiazol-2-yl](oxolan-3-yl)methyl} pyrazine-2-carboxamide] | 0.06 µM
Cc1cnc(C(=O)N[C@H](c2nc3cc(C(F)(F)F)ccc3n2C)[C@H]2CCCO2)cn1 (single isomer, unassigned) [Example 56] | 0.013 µM
COCCn1c(C(NC(=O)c2cnc(C)cn2)C2CCOC2)nc2cc(OC(F)(F)F)ccc21 (single isomer, unassigned) [Example 62-2, N-{[1-(2-methoxyethyl)-5-(trifluoromethoxy)-1H-1,3-benzodiazol-2-yl](oxolan-3-yl)methyl}-5-methylpyrazine-2-carboxamide] | 0.028 µM
CCn1c(C(NC(=O)c2cnc(C)cn2)C2CCOC2)nc2cc(OC(F)(F)F)ccc21 (single isomer, unassigned) [Example 70-2, N-{[1-ethyl-5-(trifluoromethoxy)-1H-1,3-benzodiazol-2-yl](oxolan-3-yl)methyl}-5-methylpyrazine-2-carboxamide] | 0.02 µM
CCn1c([C@@H](NC(=O)c2cnc(C)cn2)[C@H]2CCOC2)nc2cc(OC(F)(F)F)ccc21 (single isomer, unassigned) [Example 70] | 0.012 µM
COCCn1c(C(NC(=O)c2cnc(C)cn2)C2CCCO2)nc2cc(C(F)(F)F)ccc21 (single isomer, unassigned) [Example 71-2, N-{[1-(2-methoxyethyl)-5-(trifluoromethyl)-1H-1,3-benzodiazol-2-yl](oxolan-2-yl)methyl}-5-methylpyrazine-2-carboxamide] | 0.003 µM
COCCn1c([C@@H](NC(=O)c2cnc(C)cn2)[C@H]2CCCO2)nc2cc(C(F)(F)F)ccc21 (single isomer, unassigned) [Example 71] | 0.013 µM
Cc1cnc(C(=O)N[C@H](c2nc3cc(C(F)(F)F)ccc3n2C)[C@H]2CCCO2)cn1 (single isomer, unassigned) [Example 75] | 0.019 µM
Cc1cnc(C(=O)NC(c2nc3cc(OC(F)(F)F)ccc3n2C)C2CCCOC2)cn1 (single isomer, unassigned) [Example 78-2, 5-methyl-N-{[1-methyl-5-(trifluoromethoxy)-1H-1,3-benzodiazol-2-yl](oxan-3-yl)methyl]pyrazine-2-carboxamide] | 0.025 µM
Cc1cnc(C(=O)NC(c2nc3cc(C(F)(F)F)ccc3n2C)C2CCCOC2)cn1 (single isomer, unassigned) [Example 82-2, 5-methyl-N-{[1-methyl-5-(trifluoromethyl)-1H-1,3-benzodiazol-2-yl](oxan-3-yl)methyl}pyrazine-2-carboxamide] | 0.032 µM
COCCn1c(C(NC(=O)c2cnc(C)cn2)C2CCOC2)nc2cc(C(F)(F)F)ccc21 (single isomer, unassigned) [Example 87-1, N-{[1-(2-methoxyethyl)-5-(trifluoromethyl)-1H-1,3-benzodiazol-2-yl](oxolan-3-yl)methyl}-5-methylpyrazine-2-carboxamide] | 0.021 µM
COCCn1c(C(NC(=O)c2cnc(C)cn2)C2CCOC2)nc2cc(Cl)ccc21 (single isomer, unassigned) [Example 91-1, N-{[5-chloro-1-(2-methoxyethyl)-1H-1,3-benzodiazol-2-yl](oxolan-3-yl)methyl}-5-methylpyrazine-2-carboxamide] | 0.032 µM
CCn1c(C(NC(=O)c2cnc(C)cn2)C2CCOC2)nc2cc(OC(F)(F)F)ccc21 (single isomer, unassigned) [Example 97-1, N-{[1-ethyl-5-(trifluoromethoxy)-1H-1,3-benzodiazol-2-yl](oxolan-3-yl)methyl}-5-methylpyrazine-2-carboxamide] | 0.012 µM

The next lines start with the values.

IC50 | Compound
0.022 µM | COCCn1c(C(NC(=O)c2cnc(C)cn2)C2CCCOC2)nc2cc(C(F)(F)F)ccc21 (single isomer, unassigned) [Example 103-1, N-{[1-(2-methoxyethyl)-5-(trifluoromethyl)-1H-1,3-benzodiazol-2-yl](oxan-3-yl)methyl}-5-methylpyrazine-2-carboxamide]
0.011 µM | CCn1c(C(NC(=O)c2cnc(C)cn2)C2CCOC2)nc2cc(C(F)(F)F)ccc21 (single isomer, unassigned) [Example 139, N-{[1-ethyl-5-(trifluoromethyl)-1H-1,3-benzodiazol-2-yl](oxolan-3-yl)methyl}-5-methylpyrazine-2-carboxamide]
0.031 µM | Cc1cnc(C(=O)NC(c2nc3cc(C(F)(F)F)ccc3n2CC(F)F)C2CCOC2)cn1 (single isomer, unassigned) [Example 141, N-{[1-(2,2-difluoroethyl)-5-(trifluoromethyl)-1H-1,3-benzodiazol-2-yl](oxolan-3-yl)methyl}-5-methylpyrazine-2-carboxamide]
0.066 µM | CCn1c(C(NC(=O)c2cnc(C)cn2)C2CCOC2)nc2cc(F)ccc21 (single isomer, unassigned) [Example 143, N-[(1-ethyl-5-fluoro-1H-1,3-benzodiazol-2-yl)(oxolan-3-yl)methyl]-5-methylpyrazine-2-carboxamide]
0.016 µM | Cc1cnc(C(=O)NC(c2nc3ccc(C(F)(F)F)cc3n2CC(F)F)C2CCOC2)cn1 (single isomer, unassigned) [Example 146, N-{[1-(2,2-difluoroethyl)-6-(trifluoromethyl)-1H-1,3-benzodiazol-2-yl](oxolan-3-yl)methyl}-5-methylpyrazine-2-carboxamid]
0.011 µM | CCn1c(C(NC(=O)c2cnc(C)cn2)C2CCOC2)nc2ccc(C(F)(F)F)cc21 (single isomer, unassigned) [Example 147, N-{[1-ethyl-6-(trifluoromethyl)-1H-1,3-benzodiazol-2-yl](oxolan-3-yl)methyl}-5-methylpyrazine-2-carboxamide]
0.014 µM | CCn1c(C(NC(=O)c2cnc(C)cn2)C2CCOC2)nc2ccc(C(F)(F)F)cc21 (single isomer, unassigned) [Example 148, N-{[1-ethyl-6-(trifluoromethyl)-1H-1,3-benzodiazol-2-yl](oxolan-3-yl)methyl}-5-methylpyrazine-2-carboxamide]
0.03 µM | CCn1c(C(NC(=O)c2cnc(C)cn2)C2CCOC2)nc2cc(F)c(F)cc21 (single isomer, unassigned) [Example 159, N-[(1-ethyl-5,6-difluoro-1H-1,3-benzodiazol-2-yl)(oxolan-3-yl)methyl]-5-methylpyrazine-2-carboxamide]
0.047 µM | CCn1c(C(NC(=O)c2cnc(C)cn2)C2CCOC2)nc2cc(F)c(F)cc21 (single isomer, unassigned) [Example 160, N-[(1-ethyl-5,6-difluoro-1H-1,3-benzodiazol-2-yl)(oxolan-3-yl)methyl]-5-methylpyrazine-2-carboxamide]
0.014 µM | CCn1c(C(NC(=O)c2cnc(C)cn2)C2CCOC2)nc2cc(Cl)ccc21 (single isomer, unassigned) [Example 161, N-[(5-chloro-1-ethyl-1H-1,3-benzodiazol-2-yl)(oxolan-3-yl)methyl]-5-methylpyrazine-2-carboxamide]
